US10472369B2, “Crystalline forms of (6-(1H-indazol-6-yl)-N-[4-(4-(4-morpholinyl)phenyl]imidazo[1,2-A]pyrazin-8-amine) methanesulfonate” (Crystal Pharmatech Co., Ltd., priority 2016, dated 2019)
Converted amounts (≈) assume the structure as drawn.

What was measured:
[1] = Slurry/stirring in H2O/IPA solvent systems with different water activities, final form by XRPD; format: physicochemical; details: 6 days
Experimental: Prior form 7 as starting material was stirred at room temperature in solvent systems with different water activities for 6 days, and tested.
Prior form 3 was stirred at room temperature in solvent systems with different water activities for 4 days, then the solid was tested.

[2] = Hygroscopicity by dynamic vapor sorption (DVS); format: physicochemical; details: for Weight gain 10% RH / Weight gain 20% RH / Weight gain 30% RH / Weight gain 40% RH / Weight gain 50% RH / Weight gain 60% RH: DVS 0-95%-0 RH cycle at 25° C.
Experimental: Dynamic Vapor Sorption (DVS) is measured via a SMS (Surface Measurement Systems Ltd.) intrinsic DVS. Its control software is DVS-Intrinsic control software, and its analysis software is DVS-Intrinsic Analsis software. Typical Parameters for DVS test are as follows:
Gas and flow rate: N2, 200 mL/min
RH range: 0% RH to 95% RH
Hygroscopicity of form III was measured in dynamic vapor sorption (DVS) instrument using 7.34 mg of form III obtained from example 6. The DVS plot is shown in FIG. 20, and the weight gain of form III at 80% RH is 6.48%.
6.5 mg of prior form 7 was placed in a DVS instrument, and subjected to a cycle of 0-95%-0RH at 25° C., the DVS plot is shown in FIG. 23.
9.2 mg of Form I was placed in a DVS instrument, and subjected to a cycle of 0-95%-0RH at 25° C., the DVS plot is shown in FIG. 24.
3.6 mg of Form II was placed in a DVS instrument and subjected to a cycle of 0-95%-0RH at 25° C., the DVS plot is shown in FIG. 25.

[3] = cited from earlier work
[4] = Particle size distribution (PSD), laser particle size analyzer, wet process; format: physicochemical; details: dispersion medium Isopar G
Experimental: The particle size distribution test in the present disclosure is acquired by the S3500 laser particle size analyzer of Microtrac. Microtrac S3500 is equipped with the Sample Delivery Controller. The test is carried out by wet process, and the dispersion medium is Isopar G. The parameters are as follow:
D10: The D10 describes the diameter where 10% of the distribution has a smaller particle size.
D50: The D50 describes the diameter where 50% of the distribution has a smaller particle size. The median is also called D50.
D90: The D90 describes the diameter where 90% of the distribution has a smaller particle size. Unless otherwise specified, the following examples were conducted at room temperature.

[5] = Storage stability (purity and XRPD crystalline form after storage); format: physicochemical
Experimental: Form II obtained from example 3 was stored under 25° C./60% RH for 90 days. XRPD patterns were collected before and after stored for 15 days, 30 days and 90 days.
Form III was stored under 25° C./60% RH and 40° C./75% RH for 300 days. XRPD patterns were collected after stored for 15 days, 30 days and 300 days.

[6] = Solubility of saturated solutions in acetone and tetrahydrofuran by HPLC; details: saturated solution, after 24 hours
[7] = listed as Form II of the present disclosure
[8] = listed as Form I of the present disclosure

SMILES: CS(=O)(=O)O.CS(=O)(=O)O.c1cn2cc(-c3ccc4cn[nH]c4c3)nc(Nc3ccc(N4CCOCC4)cc3)c2n1 [Prior form 7, reference compound]
- Final crystalline form ([1]; H2O/IPA = 1:99, water activity 0.12, room temperature): Form III of the present
- Final crystalline form ([1]; H2O/IPA = 3:97, water activity 0.3, room temperature): Form III of the present
- Final crystalline form ([1]; H2O/IPA = 6:94, water activity 0.5, room temperature): Form III of the present
- Final crystalline form ([1]; H2O/IPA = 11:89, water activity 0.7, room temperature): Form III of the present
- Final crystalline form ([1]; H2O/IPA = 23:77, water activity 0.9, room temperature): Form III of the present
- Final crystalline form in all experiments ([1]; all water activities, room temperature): converted to form III
- Weight gain 10% RH [2]: 1.68%
- Weight gain 20% RH [2]: 2.78%
- Weight gain 30% RH [2]: 4.61%
- Weight gain 40% RH [2]: 10.04%
- Weight gain 40% RH ([2]; listed as prior form 7): 10%
- Weight gain 50% RH [2]: 11.00%
- Weight gain 60% RH [2]: 11.83%
- weight gain at 80% RH (prior crystalline forms) ([3]; 80% RH): ~20%
- hygroscopicity under various humidity conditions ([3]; various humidity conditions): very high
- D(10) [4]: 3.41 μm
- D(50) [4]: 9.37 μm
- D(90) [4]: 37.69 μm

SMILES: c1cn2cc(-c3ccc4cn[nH]c4c3)nc(Nc3ccc(N4CCOCC4)cc3)c2n1 [Form II, 6-(1H-indazol-6-yl)-N-[4-(4-morpholinyl)phenyl] imidazo [1,2-a]pyrazin-8-amine]
- Crystalline form after storage ([5]; 25° C./60%RH, 15 days): Form II
- Purity % ([5]; 25° C./60%RH, 15 days): 99.50%
- Crystalline form after storage ([5]; 25° C./60%RH, 30 days): Form II
- Purity % ([5]; 25° C./60%RH, 30 days): 99.78%
- Crystalline form after storage ([5]; 25° C./60%RH, 90 days): Form II
- Purity % ([5]; 25° C./60%RH, 90 days): 99.52%
- Crystalline form after storage ([5]; 25° C./60%RH, initial): Form II
- Purity % ([5]; 25° C./60%RH, initial): 99.64%
- Weight gain 10% RH [2, 7]: 1.41%
- Weight gain 20% RH [2, 7]: 1.98%
- Weight gain 30% RH [2, 7]: 2.34%
- Weight gain 40% RH [2, 7]: 2.65%
- Weight gain 50% RH [2, 7]: 2.95%
- Weight gain 60% RH [2, 7]: 3.35%
- weight gain at 0-70% RH (in words) ([2]; DVS at 25° C., 0-70% RH): doesn't show obvious weight gain
- Solubility ([6]; Acetone): 26 µg/mL (≈ 63.2 µM)
- Solubility ([6]; Tetrahydrofuran): 18 µg/mL (≈ 43.7 µM)
- D(10) [4, 7]: 4.15 μm
- D(50) [4, 7]: 27.48 μm
- D(90) [4, 7]: 128.7 μm

SMILES: c1cn2cc(-c3ccc4cn[nH]c4c3)nc(Nc3ccc(N4CCOCC4)cc3)c2n1 [Form I, 6-(1H-indazol-6-yl)-N-[4-(4-morpholinyl)phenyl] imidazo [1,2-a]pyrazin-8-amine]
- Weight gain 10% RH [2, 8]: 0.69%
- Weight gain 20% RH [2, 8]: 0.99%
- Weight gain 30% RH [2, 8]: 1.33%
- Weight gain 40% RH [2, 8]: 1.82%
- Weight gain 50% RH [2]: 2.82%
- Weight gain 60% RH [2, 8]: 8.13%
- Solubility ([6]; Acetone): 61 µg/mL (≈ 148 µM)
- Solubility ([6]; Tetrahydrofuran): 48 µg/mL (≈ 117 µM)
- D(10) [4, 8]: 10.23 μm
- D(50) [4, 8]: 62.54 μm
- D(90) [4, 8]: 240.0 μm

SMILES: c1cn2cc(-c3ccc4cn[nH]c4c3)nc(Nc3ccc(N4CCOCC4)cc3)c2n1 [Form III, 6-(1H-indazol-6-yl)-N-[4-(4-morpholinyl)phenyl] imidazo [1,2-a]pyrazin-8-amine]
- Crystalline form after storage ([5]; 25° C./60%RH, 15 days): Form III
- Purity % ([5]; 25° C./60%RH, 15 days): 99.71%
- Crystalline form after storage ([5]; 25° C./60%RH, 30 days): Form III
- Purity % ([5]; 25° C./60%RH, 30 days): 99.78%
- Crystalline form after storage ([5]; 25° C./60%RH, 300 days): Form III
- Purity % ([5]; 25° C./60%RH, 300 days): 99.56%
- Crystalline form after storage ([5]; 25° C./60%RH, initial): Form III
- Purity % ([5]; 25° C./60%RH, initial): 99.82%
- Crystalline form after storage ([5]; 40° C./75%RH, 15 days): Form III
- Purity % ([5]; 40° C./75%RH, 15 days): 99.68%
- Crystalline form after storage ([5]; 40° C./75%RH, 30 days): Form III
- Purity % ([5]; 40° C./75%RH, 30 days): 99.73%
- Crystalline form after storage ([5]; 40° C./75%RH, 300 days): Form III
- Purity % ([5]; 40° C./75%RH, 300 days): 99.47%
- Crystalline form after storage ([5]; 40° C./75%RH, initial): Form III
- Purity % ([5]; 40° C./75%RH, initial): 99.82%
- weight gain at 80% RH ([2]; DVS, 25° C., 80% RH): 6.48%
- crystalline form after DVS test (XRPD) ([2]; solid collected after DVS): doesn't change
